C=CC(=O)N1CCC[C@@H](n2nc(-c3ccc(Oc4ccccc4)cc3)c3c(N)ncnc32)C1
solubility (mole fraction)
Conditions	298.15 K	303.15 K	308.15 K	313.15 K	323.15 K
in transcutol	0.0267	0.0288	0.0318	0.0341	0.0392
in water	1.43e-07	2.21e-07	3.11e-07	4.13e-07	7.69e-07
